Values quoted from earlier work, collected in patent US20200368246A1, “COMBINATION THERAPY TARGETING CANCER ASSOCIATED WITH THE HEDGEHOG PATHWAY” (priority 2017, published 2020).
Read-outs that look alike come from different tables or passages of the source.

Legend:
[1] = system: advanced and metastatic basal cell carcinoma; conditions: monotherapy
[2] = for patients who experience treatment-emergent adverse events: monotherapy at recommended dose; for patients who experienced adverse side effects: muscle spasms, alopecia, taste loss, weight loss, fatigue
[3] = nineteen patients; grade 2 fatigue and grade 4 congestive heart failure
basal cell carcinoma = conditions: patient
[4] = metastatic basal cell carcinoma

Compound | mean time for secondary resistance [1] | treated patients with secondary resistance [1] | response rate ([1]; advanced basal cell carcinoma) | response rate [1, 4] | patients who experience treatment-emergent adverse events [2] | patients who had to discontinue treatment due to toxic effects ([2]; monotherapy trial) | patients who experienced adverse side effects ([2]; monotherapy trial) | adverse events associated with treatment [3] | effectiveness (basal cell carcinoma; 3 cycles) | patients with severe grade 3 or 4 adverse reactions ([2]; monotherapy trial) | tumor shrinkage (basal cell carcinoma; clinical trial, within the first several months) | tumor outcome on second course (basal cell carcinoma; placed back on the drug after radiation)
Cc1c(C(=O)Nc2ccc(N3C[C@@H](C)O[C@@H](C)C3)nc2)cccc1-c1ccc(OC(F)(F)F)cc1 [Odomzo®, sonidegib] | about 52 weeks | 21% | 47% | 17.4% | Ninety-five to one hundred percent | 22% | 32% | – | – | – | – | –
CCC(C)n1ncn(-c2ccc(N3CCN(c4ccc(OCC5COC(Cn6cncn6)(c6ccc(Cl)cc6Cl)O5)cc4)CC3)cc2)c1=O (stereo not drawn) [itraconazole] | – | – | – | – | – | – | – | two adverse events | – | – | – | –
pembrolizumab [Keytruda] | – | – | – | – | – | – | – | – | failed to show effectiveness | – | – | –
CS(=O)(=O)c1ccc(C(=O)Nc2ccc(Cl)c(-c3ccccn3)c2)c(Cl)c1 [Erivedge®, vismodegib] | about 52 weeks | 21% | 43% | 30% | Ninety-five to one hundred percent | – | 33% | – | – | 25% | 70% | the tumor developed resistance to the drug
